In patent publication US7501430B2 (ArQule, Inc., priority 2006, dated 2009) one finds inhibition and IC50 data, which are given here for 22 molecules.

A value given as a limit tells only on which side of the number the result lay.

The target of this experiment is T1, mutant B-RAF (Homo sapiens, UniProt P15056, V600E).
T1 construct: purchased Upstate (Charlottesville, Va.)
As to the kind of experiment: RAF biochemical assay (MEK-1 phosphorylation, anti-phospho MEK1/2 detection). The settings on record: for inhibition at 10 µM: read-out: Mutant B-RAF % inhibition; for IC50: read-out: Mutant B-RAF IC50. In a few lines:
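Detection is by ELISA: after a 30 min room-temperature reaction, plate-captured GST-MEK-1 is probed with anti-phospho MEK1/2, then an AP-tagged secondary antibody with fluorescent Attophos read-out.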

T1 sequence (P15056 whole entry V600E): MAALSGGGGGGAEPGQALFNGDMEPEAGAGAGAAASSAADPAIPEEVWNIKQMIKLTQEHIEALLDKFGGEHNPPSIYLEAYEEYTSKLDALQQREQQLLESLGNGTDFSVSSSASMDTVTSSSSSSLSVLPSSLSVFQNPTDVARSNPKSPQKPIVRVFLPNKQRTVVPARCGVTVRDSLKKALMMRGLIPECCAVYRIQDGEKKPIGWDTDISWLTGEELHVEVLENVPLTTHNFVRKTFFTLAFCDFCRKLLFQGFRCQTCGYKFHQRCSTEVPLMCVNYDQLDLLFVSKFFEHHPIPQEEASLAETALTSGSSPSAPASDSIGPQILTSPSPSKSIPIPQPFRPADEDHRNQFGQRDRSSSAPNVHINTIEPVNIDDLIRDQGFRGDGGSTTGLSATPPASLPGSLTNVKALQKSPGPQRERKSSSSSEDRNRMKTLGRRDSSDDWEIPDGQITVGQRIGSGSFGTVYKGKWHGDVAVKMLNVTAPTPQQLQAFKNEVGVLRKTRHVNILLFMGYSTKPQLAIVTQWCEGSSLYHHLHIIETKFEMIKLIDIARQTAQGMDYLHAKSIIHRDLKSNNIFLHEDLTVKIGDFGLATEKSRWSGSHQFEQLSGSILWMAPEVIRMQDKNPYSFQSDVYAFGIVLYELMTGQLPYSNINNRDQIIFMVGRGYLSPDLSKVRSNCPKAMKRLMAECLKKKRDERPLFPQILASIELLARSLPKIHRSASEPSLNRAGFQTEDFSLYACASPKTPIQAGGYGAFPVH

With `N#Cc1ccc(S(=O)(=O)N2CCC(Nc3nccc(-c4c(-c5ccc(F)cc5)nc5occn45)n3)CC2)cc1` [Example 240, 4-{[4-({4-[6-(4-fluorophenyl)imidazo[2,1-b][1,3]oxazol-5-yl]pyrimidin-2-yl}amino)piperidin-1-yl]sulfonyl}benzonitrile], the inhibition at 10 µM amounted to 44%.

For the molecule `Cc1cn2c(-c3ccnc(NC4CCN(C(=O)NCc5ccccc5)CC4)n3)c(-c3ccc(F)cc3)nc2s1` [Example 241, N-benzyl-4-({4-[6-(4-fluorophenyl)-2-methylimidazo[2,1-b][1,3]thiazol-5-yl]pyrimidin-2-yl}amino)piperidine-1-carboxamide], the IC50 was 2530 nM. For the molecule `Cc1cn2c(-c3ccnc(NC4CCN(C(=O)NCc5ccco5)CC4)n3)c(-c3ccc(F)cc3)nc2s1` [Example 242, 4-({4-[6-(4-fluorophenyl)-2-methylimidazo[2,1-b][1,3]thiazol-5-yl]pyrimidin-2-yl}amino)-N-(2-furylmethyl)piperidine-1-carboxamide], the inhibition at 10 µM stood at 67%. As to `O=C(NCc1ccco1)N1CCC(Nc2nccc(-c3c(-c4ccc(F)c(F)c4)nc4sccn34)n2)CC1` [Example 243, 4-({4-[6-(3,4-difluorophenyl)imidazo[2,1-b][1,3]thiazol-5-yl]pyrimidin-2-yl}amino)-N-(2-furylmethyl)piperidine-1-carboxamide], the inhibition at 10 µM is 76%. The same measure, in the same setting: the same measure for `c1ccc2cc(-c3nc4sccn4c3-c3ccnc(NC4CCNCC4)n3)ccc2c1` [Example 244, 4-[6-(2-naphthyl)imidazo[2,1-b][1,3]thiazol-5-yl]-N-piperidin-4-ylpyrimidin-2-amine]: 47%.

In the case of `COc1cccc(-c2nc3sccn3c2-c2ccnc(NC3CCN(C(=O)Cc4ccc(N(C)C)cc4)CC3)n2)c1` [Example 245, N-(1-{[4-(dimethylamino)phenyl]acetyl}piperidin-4-yl)-4-[6-(3-methoxyphenyl)imidazo[2,1-b][1,3]thiazol-5-yl]pyrimidin-2-amine], the IC50 amounted to 2460 nM. The same measure, in the same setting: next, `Cc1ccc(-c2nc3scc(C)n3c2-c2ccnc(NC3CCNCC3)n2)cc1` [Example 246, 4-[3-methyl-6-(4-methylphenyl)imidazo[2,1-b][1,3]thiazol-5-yl]-N-piperidin-4-ylpyrimidin-2-amine]: above 10000 nM. For the setting “@ 2 uM”, `O=[N+]([O-])c1ccc(-c2nc3sccn3c2-c2ccnc(NC3CCNCC3)n2)cc1` [Example 247, 4-[6-(4-nitrophenyl)imidazo[2,1-b][1,3]thiazol-5-yl]-N-piperidin-4-ylpyrimidin-2-amine] gave an inhibition at 2 µM of 9%. Consider `Cc1nc(S(=O)(=O)N2CCC(Nc3nccc(-c4c(-c5ccc(F)cc5)nc5occn45)n3)CC2)cn1C` [Example 248, N-{1-[(1,2-dimethyl-1H-imidazol-4-yl)sulfonyl]piperidin-4-yl}-4-[6-(4-fluorophenyl)imidazo[2,1-b][1,3]oxazol-5-yl]pyrimidin-2-amine], for which the IC50 was 931 nM.

On to `c1cc(-c2c(-c3ccc4c(c3)OCCO4)nc3sccn23)nc(NC2CCNCC2)n1` [Example 249, 4-[6-(2,3-dihydro-1,4-benzodioxin-6-yl)imidazo[2,1-b][1,3]thiazol-5-yl]-N-piperidin-4-ylpyrimidin-2-amine], for which the inhibition at 10 µM amounted to 58%.

With `c1ccc(-c2ccc(-c3nc4sccn4c3-c3ccnc(NC4CCNCC4)n3)cc2)cc1` [Example 250, 4-(6-biphenyl-4-ylimidazo[2,1-b][1,3]thiazol-5-yl)-N-piperidin-4-ylpyrimidin-2-amine], at 3 µM the inhibition (@ 3 uM) was 2%.

With `O=C(NCc1ccccc1)N1CCC(Nc2nccc(-c3c(-c4ccc(F)c(F)c4)nc4sccn34)n2)CC1` [Example 251, N-benzyl-4-({4-[6-(3,4-difluorophenyl)imidazo[2,1-b][1,3]thiazol-5-yl]pyrimidin-2-yl}amino)piperidine-1-carboxamide], the inhibition at 10 µM turned out to be 63%. Consider `Cc1ccc(-c2nc3scc(C)n3c2-c2ccnc(NC3CCN(C(=O)Nc4ccc(N(C)C)cc4)CC3)n2)cc1` [Example 252, N-[4-(dimethylamino)phenyl]-4-({4-[3-methyl-6-(4-methylphenyl)imidazo[2,1-b][1,3]thiazol-5-yl]pyrimidin-2-yl}amino)piperidine-1-carboxamide], for which the IC50 was above 3000 nM. `CN(C)c1ccc(NC(=O)N2CCC(Nc3nccc(-c4c(-c5ccc([N+](=O)[O-])cc5)nc5sccn45)n3)CC2)cc1` [Example 253, N-[4-(dimethylamino)phenyl]-4-({4-[6-(4-nitrophenyl)imidazo[2,1-b][1,3]thiazol-5-yl]pyrimid-in-2-yl}amino)piperidine-1-carboxamide]: the concentration for half-maximal inhibition (IC50) is above 3000 nM. On the same count and under the same terms, the same measure for `CN(C)c1ccc(NC(=O)N2CCC(Nc3nccc(-c4c(-c5ccc(-c6ccccc6)cc5)nc5sccn45)n3)CC2)cc1` [Example 254, 4-{[4-(6-biphenyl-4-ylimidazo[2,1-b][1,3]thiazol-5-yl)pyri-midin-2-yl]amino)-N-[4-(di-methylamino)phenyl]piperidine-1-carboxamide]: above 3000 nM. Still for that read-out and setting: the same measure for `O=S(=O)(c1ccc(Cl)cc1)N1CCC(Nc2nccc(-c3c(-c4ccc(F)cc4)nc4sccn34)n2)CC1` [Example 255, N-{1-[(4-chlorophenyl)sulfonyl]piperidin-4-yl}-4-[6-(4-fluorophenyl)imidazo[2,1-b][1,3]thiazol-5-yl]pyrimidin-2-amine]: 696 nM; for `NC(=O)N1CCC(Nc2nccc(-c3c(-c4ccc(F)cc4)nc4occn34)n2)CC1` [Example 256, 4-({4-[6-(4-fluorophenyl)imidazo[2,1-b][1,3]oxazol-5-yl]pyrimidin-2-yl}amino)piperidine-1-carboxamide]: above 1000 nM; for `Cc1cn2c(-c3ccnc(NC4CCN(S(=O)(=O)c5ccc(Cl)cc5)CC4)n3)c(-c3ccc(F)cc3)nc2s1` [Example 257, N-{1-[(4-chlorophenyl)sulfonyl]piperidin-4-yl}-4-[6-(4-fluorophenyl)-2-methylimidazo[2,1-b][1,3]thiazol-5-yl]pyrimidin-2-amine]: 73 nM. Still for that read-out and setting: next, `Cc1cn2c(-c3ccnc(NC4CCN(S(=O)(=O)c5ccc(C(=O)O)cc5)CC4)n3)c(-c3ccc(F)cc3)nc2s1` [Example 258, 4-{[4-({4-[6-(4-fluorophenyl)-2-methylimidazo[2,1-b][1,3]thiazol-5-yl]pyrimidin-2-yl}amino)piperidin-1-yl]sulfonyl}benzoic acid]: 322 nM. Consider `CC(=O)Nc1ccc(-c2nc3sccn3c2-c2ccnc(NC3CCN(S(=O)(=O)c4ccc(Cl)cc4)CC3)n2)cc1` [Example 259, N-(4-{5-[2-({1-[(4-chlorophenyl)sulfonyl]piperidin-4-yl}amino)pyrimidin-4-yl]imidazo[2,1-b][1,3]thiazol-6-yl}phenyl)acetamide], for which the IC50 was above 3000 nM. Same read-out and setting: next, `O=S(=O)(c1ccc(F)cc1)N1CCC(Nc2nccc(-c3c(-c4ccc5c(c4)OCCO5)nc4sccn34)n2)CC1` [Example 260, 4-[6-(2,3-dihydro-1,4-benzodioxin-6-yl)imidazo[2,1-b][1,3]thiazol-5-yl]-N-{1-[(4-fluorophenyl)sulfonyl]piperidin-4-yl}pyrimidin-2-amine]: 186 nM; `COc1ccccc1-c1nc2sccn2c1-c1ccnc(NC2CCNCC2)n1` [Example 261, 4-[6-(2-methoxyphenyl)imidazo[2,1-b][1,3]thiazol-5-yl]-N-piperidin-4-ylpyrimidin-2-amine]: above 3000 nM.

As a reminder, the inhibition is the drop in the measured response relative to a control, in per cent. By IC50 is commonly meant the midpoint of a concentration-inhibition curve.
